These results are taken from patent US20260250325A1, “Antiviral Polypeptide Membrane Fusion Inhibitor, and Preparation Method and Application Thereof” (priority 2025, published 2026).

Where a SMILES comes first, the peptide text is derived from it. The star is where a group is joined. Succinyl(4-O-cholesteryl) = CC(C)CCC[C@@H](C)[C@H]1CC[C@H]2[C@@H]3CC=C4C[C@@H](OC(=O)CCC(=O)*)CC[C@]4(C)[C@H]3CC[C@]12C

In one data set the test system is RSV A long virus strain. It counts as cell-based. Particulars: RSV A long virus strain, HEp-2 cells, plaque reduction, 1 day; read-out: IC50. Summed up: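 HEp-2 cells (30000/well) infected with 100 PFU virus premixed 1 h with compound (8 concentrations, duplicate); after 2 h adsorption, cultured 1 day at 37 °C under 0.8% CMC overlay with compound. Plaques immunostained (RSV antibody, TrueBlue) and counted; IC50 and CC50 by non-linear fitting of % inhibition versus virus and cell controls.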

A short description of data set [1]: Cytotoxicity test in HEp-2 cells (CCK8 cell viability). It counts as cell-based. Particulars: human; HEp-2 cells, CCK8, 1 day; read-out: CC50. In outline: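 HEp-2 cells seeded at 30,000/well, cultured overnight at 37° C./5% CO2, then exposed to diluted compound for 1 day in 0.5% DMSO. Viability read by CCK8, normalised to untreated-cell and medium-only controls; CC50 from four-parameter variable-slope fit.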

The term IC50 denotes the concentration that inhibits the measured activity by half. Broadly, the CC50 is the concentration giving 50% cytotoxicity. As for `CC[C@H](C)[C@H](NC(=O)[C@H](CO)NC(=O)[C@H](C)NC(=O)[C@H](CC(=O)O)NC(=O)[C@H](Cc1ccccc1)NC(=O)[C@H](CCC(=O)O)NC(=O)[C@H](CC(=O)O)NC(=O)[C@H](Cc1c[nH]c2ccccc12)NC(C)=O)C(=O)N[C@@H](CCC(=O)O)C(=O)N[C@@H](CCC(=O)O)C(=O)N[C@H](C(=O)N[C@@H](CC(N)=O)C(=O)N[C@@H](CCCNC(=N)N)C(=O)N[C@@H](CCCNC(=N)N)C(=O)N[C@H](C(=O)N[C@@H](CCC(=O)O)C(=O)N[C@@H](CCC(=O)O)C(=O)N[C@@H](CO)C(=O)N[C@@H](CC(C)C)C(=O)N[C@@H](CCCNC(=N)N)C(=O)N[C@@H](CCCNC(=N)N)C(=O)N[C@H](C(=O)N[C@@H](CCC(=O)O)C(=O)N[C@@H](CCC(=O)O)C(=O)N[C@@H](CO)C(=O)N[C@@H](CC(=O)O)C(=O)N[C@@H](CCCNC(=N)N)C(=O)N[C@@H](CCCNC(=N)N)C(=O)N[C@@H](CC(C)C)C(=O)N[C@@H](CCC(=O)O)C(=O)N[C@@H](CCC(=O)O)C(=O)N[C@H](C(=O)N[C@@H](CCC(=O)O)C(=O)N[C@@H](C)C(=O)N[C@@H](C)C(=O)N[C@@H](C)C(=O)N[C@@H](CCCCN)C(=O)N[C@@H](CCCCNC(=O)CCC(=O)O[C@H]1CC[C@@]2(C)C(=CC[C@H]3[C@@H]4CC[C@H]([C@H](C)CCCC(C)C)[C@@]4(C)CC[C@@H]32)C1)C(N)=O)C(C)C)[C@@H](C)CC)[C@@H](C)CC)C(C)C` [Compound 43] (Ac-WDEFDASIEEVNRRIEESLRRIEESDRRLEEVEAAAKK(Succinyl(4-O-cholesteryl))-NH2), the IC50 in the data set on RSV A long virus strain worked out at 18.3 nM. Further, the CC50 at 1 day in data set [1] is 12200 nM.

As for `CC[C@H](C)[C@H](NC(=O)[C@H](CCCCN)NC(=O)[C@H](CCCCN)NC(=O)[C@H](CC(C)C)NC(=O)[C@H](CO)NC(=O)[C@H](CCC(=O)O)NC(=O)[C@H](CCC(=O)O)NC(=O)[C@@H](NC(=O)[C@H](CCCCN)NC(=O)[C@H](CCCCN)NC(=O)[C@H](CC(N)=O)NC(=O)[C@@H](NC(=O)[C@H](CCC(=O)O)NC(=O)[C@H](CCC(=O)O)NC(=O)[C@@H](NC(=O)[C@H](CCCCN)NC(=O)[C@H](CCCCN)NC(=O)[C@H](CC(=O)O)NC(=O)[C@H](Cc1ccccc1)NC(=O)[C@H](CCC(=O)O)NC(=O)[C@H](CC(=O)O)NC(=O)[C@H](Cc1c[nH]c2ccccc12)NC(C)=O)[C@@H](C)CC)C(C)C)[C@@H](C)CC)C(=O)N[C@@H](CCC(=O)O)C(=O)N[C@@H](CCC(=O)O)C(=O)N[C@@H](CO)C(=O)N[C@@H](CC(=O)O)C(=O)N[C@@H](CCCCN)C(=O)N[C@@H](CCCCN)C(=O)N[C@@H](CC(C)C)C(=O)N[C@@H](Cc1c[nH]cn1)C(=O)N[C@@H](CC(N)=O)C(=O)N[C@H](C(=O)N[C@@H](CCC(=O)O)C(=O)N[C@@H](C)C(=O)N[C@@H](C)C(=O)N[C@@H](C)C(=O)N[C@@H](CCCCN)C(=O)N[C@@H](CCCCNC(=O)CCC(=O)O[C@H]1CC[C@@]2(C)C(=CC[C@H]3[C@@H]4CC[C@H]([C@H](C)CCCC(C)C)[C@@]4(C)CC[C@@H]32)C1)C(N)=O)C(C)C` [Compound 44] (Ac-WDEFDKKIEEVNKKIEESLKKIEESDKKLHNVEAAAKK(Succinyl(4-O-cholesteryl))-NH2), the half-inhibitory concentration (IC50) in the data set on RSV A long virus strain came out at 12.4 nM. In data set [1], the 50% cytotoxic concentration (CC50) at 1 day was determined as 26500 nM.

Turning to `CC[C@H](C)[C@H](NC(=O)[C@H](CO)NC(=O)[C@H](C)NC(=O)[C@H](CC(=O)O)NC(=O)[C@H](Cc1ccccc1)NC(=O)[C@H](CCC(=O)O)NC(=O)[C@H](CC(=O)O)NC(=O)[C@H](Cc1c[nH]c2ccccc12)NC(C)=O)C(=O)N[C@@H](CO)C(=O)N[C@@H](CCC(N)=O)C(=O)N[C@H](C(=O)N[C@@H](CC(N)=O)C(=O)N[C@@H](CCC(=O)O)C(=O)N[C@@H](CCCCN)C(=O)N[C@H](C(=O)N[C@@H](CC(N)=O)C(=O)N[C@@H](CCC(N)=O)C(=O)N[C@@H](CO)C(=O)N[C@@H](CC(C)C)C(=O)N[C@@H](CCC(=O)O)C(=O)N[C@@H](CCC(=O)O)C(=O)N[C@H](C(=O)N[C@@H](CCCNC(=N)N)C(=O)N[C@@H](CCCCN)C(=O)N[C@@H](CO)C(=O)N[C@@H](CC(=O)O)C(=O)N[C@@H](CCC(=O)O)C(=O)N[C@@H](CC(C)C)C(=O)N[C@@H](CC(C)C)C(=O)N[C@@H](Cc1c[nH]cn1)C(=O)N[C@@H](CC(N)=O)C(=O)N[C@@H](CCC(=O)O)C(=O)N[C@@H](C)C(=O)N[C@@H](C)C(=O)N[C@@H](C)C(=O)N[C@@H](CCCCN)C(=O)N[C@@H](CCCCNC(=O)CCC(=O)O[C@H]1CC[C@@]2(C)C(=CC[C@H]3[C@@H]4CC[C@H]([C@H](C)CCCC(C)C)[C@@]4(C)CC[C@@H]32)C1)C(N)=O)[C@@H](C)CC)[C@@H](C)CC)C(C)C` [Compound 45] (Ac-WDEFDASISQVNEKINQSLEEIRKSDELLHNEAAAKK(Succinyl(4-O-cholesteryl))-NH2), in the data set on RSV A long virus strain, the concentration for half-maximal inhibition (IC50) was determined as 12.2 nM. For the same molecule, in data set [1], the 50% cytotoxic concentration (CC50) at 1 day stood at 9940 nM.

Regarding `CC[C@H](C)[C@H](NC(=O)[C@H](CCCCN)NC(=O)[C@H](CCCCN)NC(=O)[C@H](CC(C)C)NC(=O)[C@H](CO)NC(=O)[C@H](CCC(N)=O)NC(=O)[C@H](CC(N)=O)NC(=O)[C@@H](NC(=O)[C@H](CCCCN)NC(=O)[C@H](CCCCN)NC(=O)[C@H](CC(=O)O)NC(=O)[C@H](Cc1ccccc1)NC(=O)[C@H](CCC(=O)O)NC(=O)[C@@H](NC(=O)[C@H](CCCCN)NC(=O)[C@H](CCCCN)NC(=O)[C@H](CC(N)=O)NC(=O)[C@@H](NC(=O)[C@H](CC(C)C)NC(=O)[C@H](CCC(=O)O)NC(=O)[C@H](CC(=O)O)NC(=O)[C@H](CO)NC(C)=O)C(C)C)[C@@H](C)CC)[C@@H](C)CC)C(=O)N[C@@H](CCC(=O)O)C(=O)N[C@@H](CCC(=O)O)C(=O)N[C@@H](CO)C(=O)N[C@@H](CC(=O)O)C(=O)N[C@@H](CCCCN)C(=O)N[C@@H](CCCCN)C(=O)N[C@@H](CCCCN)C(=O)N[C@@H](CC(C)C)C(=O)N[C@@H](CCC(=O)O)C(=O)N[C@@H](C)C(=O)N[C@@H](C)C(=O)N[C@@H](C)C(=O)N[C@@H](CCCCN)C(=O)N[C@@H](CCCCN)C(N)=O` [Compound 51] (Ac-SDELVNKKIEFDKKINQSLKKIEESDKKKLEAAAKK-NH2), the IC50 with RSV A long virus strain amounted to 9.9 nM. In addition, in data set [1], the CC50 at 1 day worked out at 3200 nM.

As for “Ac-FDEEISQVNEKINQSLAFIRKSDELLHNVNAGKSTTEAAAKK(Succinyl(4-O-cholesteryl))-NH2 [Compound 26]”, the half-maximal inhibitory concentration (IC50) in the data set on RSV A long virus strain worked out at 12.8 nM. Moreover, the CC50 at 1 day in data set [1] is > 100000 nM.

For the molecule “Ac-LVKKIDEFDASISQVNEKINQSLEEIRKSDELLHNVGSGSGK(Succinyl(4-O-cholesteryl))-NH2 [Compound 29]”, in the data set with RSV A long virus strain, the IC50 was determined as 19.3 nM. Besides, the half-maximal cytotoxic concentration (CC50) at 1 day in data set [1] is 15000 nM.

Consider “Ac-SLEQVNEKINQSLAFIRKSDEINQSDEEVNKSDELLEAAAKK-NH2 [Compound 50]”, for which the half-maximal inhibitory concentration (IC50) in the data set on RSV A long virus strain turned out to be 15.1 nM. In addition, the 50% cytotoxic concentration (CC50) at 1 day in data set [1] worked out at 32600 nM.

For “Ac-WDEFDASISQVNEKINQSLEEIRKSDELLHNVNAGLGSGSGK(Succinyl(4-O-cholesteryl))-NH2 [Compound 27]”, in the data set on RSV A long virus strain, the IC50 stood at 25.7 nM. Also, the CC50 at 1 day in data set [1] amounted to 18400 nM.

Regarding “Ac-WDEFDASISQVNEKINQSLEEIRKSDELLHNVNALEAAAKK(Succinyl(4-O-cholesteryl))-NH2 [Compound 38]”, the concentration for half-maximal inhibition (IC50) in the data set on RSV A long virus strain was determined as 14.6 nM. The CC50 at 1 day in data set [1] stood at 10900 nM.
